One data set has as its system Staphylococcus aureus. The data set is described as follows: Antibacterial activity against methicillin-resistant Staphylococcus aureus CCARM 3090 at 10 mg/ml after 20 hrs by agar diffusion method. It is filed as functional. Conditions: CCARM 3090, 20 h, read-out: IZ. For orientation: Agar diffusion results depend on both activity and mobility in agar.
For the next data set, the system named is H3N2 subtype. The data set is described as follows: Antiviral activity against Influenza A virus (A/Aichi/2/1968(H3N2)) infected in MDCK cells assessed as inhibition of virus-induced cytopathicity after 48 hrs by crystal violet staining based method. It is filed as functional, organism-based. Background: Protection from cytopathic effect is a common read-out in antiviral testing.

A further data set deals with Influenza A virus. The data set is described as follows: Antiviral activity against Influenza A virus (A/Virginia/ATCC1/2009(H1N1)) infected in MDCK cells assessed as inhibition of virus-induced cytopathicity after 48 hrs by crystal violet staining based method. Type of data set: functional, organism-based.
Data set [1] can be described thus: Cytotoxicity against MDCK cells assessed as reduction in cell viability after 48 hrs by crystal violet staining based method. Also noted: species or system Canis lupus familiaris. The settings on record: dog.

A word on the IC50: it is the concentration that gives 50% inhibition. In general, CC50 refers to the concentration giving 50% cytotoxicity. Consider `Cc1c(O)c(CCCCC(C)C)coc1=O`, for which the zone of inhibition at 10000 µg/mL in the data set on Staphylococcus aureus is 11 mm. The half-inhibitory concentration (IC50) in the data set with H3N2 subtype was 150 µM; with Influenza A virus, 132 µM. Also, the CC50 at 48 h in data set [1] was 1290 µM.

`COc1c(CCCC(C)C)coc(=O)c1C`: the zone of inhibition at 10000 µg/mL in the data set on Staphylococcus aureus amounted to 0 mm. For the same compound, the half-maximal inhibitory concentration (IC50) is 95 µM in the data set on H3N2 subtype and 58.8 µM with Influenza A virus. Besides, the half-maximal cytotoxic concentration (CC50) at 48 h in data set [1] was 2000 µM.

For the compound `COc1c(CCCCC(C)C)coc(=O)c1C`, the zone of inhibition at 10000 µg/mL in the data set on Staphylococcus aureus stood at 6 mm. The results for the IC50 in the data set on H3N2 subtype and in the data set with Influenza A virus were 63.9 µM and 64.9 µM, respectively. Moreover, in data set [1], the CC50 at 48 h stood at 1880 µM.

In the case of `CCC(C)CCCCc1coc(=O)c(C)c1OC` (stereo not given), in the data set with Staphylococcus aureus, the zone of inhibition at 10000 µg/mL is 0 mm. For the same compound, the results for the IC50 in the data set with H3N2 subtype and with Influenza A virus were 72.8 µM and 68.4 µM, respectively. The CC50 at 48 h in data set [1] turned out to be 1550 µM.

For the compound `Cc1c(O)c(CCCC(C)C)coc1=O`, the zone of inhibition at 10000 µg/mL with Staphylococcus aureus was 0 mm. In addition, the results for the IC50 with H3N2 subtype and with Influenza A virus were 104 µM and 60.9 µM, respectively. In data set [1], the CC50 at 48 h is 1240 µM.

As to `CCCCCCCc1coc(=O)c(C)c1O`, the zone of inhibition at 10000 µg/mL with Staphylococcus aureus worked out at 11 mm. The IC50 in the data set on H3N2 subtype and in the data set with Influenza A virus was 74.3 µM throughout. The half-maximal cytotoxic concentration (CC50) at 48 h in data set [1] was determined as 2200 µM.

`CCCCCCCc1coc(=O)c(C)c1OC`: in the data set on Staphylococcus aureus, the zone of inhibition at 10000 µg/mL is 0 mm. Moreover, the IC50 is 45.3 µM in the data set on H3N2 subtype and 30.6 µM with Influenza A virus. Moreover, the CC50 at 48 h in data set [1] came out at 2230 µM.

As for `CCC(C)CCCCc1coc(=O)c(C)c1O` (stereo not given), the zone of inhibition at 10000 µg/mL in the data set on Staphylococcus aureus was determined as 18 mm. Further, the IC50 in the data set with H3N2 subtype came to 82.3 µM; with Influenza A virus it was 79.3 µM. Besides, in data set [1], the CC50 at 48 h stood at 1620 µM.

Turning to `NC(=O)c1ncn([C@@H]2O[C@H](CO)[C@@H](O)[C@H]2O)n1` [RIBAVIRIN], the figures for the IC50 in the data set on H3N2 subtype and with Influenza A virus were 99.6 µM and 66.7 µM, respectively. The CC50 at 48 h in data set [1] was 1370 µM.
